# Laboratory results reported in patent US10537567B2, “Kinase inhibitors for treatment of disease” (BioAxone BioSciences, Inc., priority 2017, dated 2020).
# “Also recorded” adds a separate entry of the source.
# Legend:
# cellular ROCK activity = experiment: pMLC2 immunoblot dose-response in human trabecular meshwork cells; format: cell-based; settings: serum starved TM cells, 1 hour treatment
# Method: To quantify the inhibitory effect of the compounds the TM cells were serum starved and treated for 1 hour with the indicated compound concentration and then lysed and extracted for SDS-PAGE and immunoblotting for phosphorylated myosin light chain kinase 2 (pMLC2), which is a biomarker for cellular ROCK activity.
# retinal ganglion cells = experiment: RGC dendritic arbor in Hb9-GFP glaucoma mice; format: in vivo; settings: 1 month, weekly microbead injection, daily eye drops
# Source text: To evaluate changes in the RGC dendritic arbor in glaucoma and the ability of the API to prevent neuronal loss in the retina, mice are used which carry an enhanced GFP (eGFP) driven by the Hb9 promoter (B6.Cg-Tg(Hlxb9-GFP)1Tmj/J; Jackson Labs), which directs GFP expression to the on-off direction-sensitive ganglion cell (ooDSGC) sub-population of retinal ganglion cells (Trenholm et al. 2011 Neuron. 71(4): p. 683-694). These mice allow visualization of non-overlapping RGCs for unambiguous identification of individual dendritic arbors. Treated and control glaucoma eyes are examined, as well as normal eyes 1 month after weekly microbead injection and daily eye drops. The eyes are fixed by perfusion and prepared for retinal whole mounts, and the labeled ganglion cells visualized by fluorescence microscopy. Images are imported into ImageJ and analyzed for dendritic field area (using the polygon tool to join points along the perimeter of the field) and subjected to Sholl analysis using the plugin for Image J to be able to characterize dendritic branching and complexity of normal, glaucoma/treated and glaucoma/control RGCs.
# [1] = target: T1, norepinephrine transporter (NET) (Homo sapiens, UniProt P23975); experiment: Safety screen; format: biochemical; settings: 10,000 nM API
# T1 construct: purchased DiscoverX
# T1 sequence (P23975 whole entry): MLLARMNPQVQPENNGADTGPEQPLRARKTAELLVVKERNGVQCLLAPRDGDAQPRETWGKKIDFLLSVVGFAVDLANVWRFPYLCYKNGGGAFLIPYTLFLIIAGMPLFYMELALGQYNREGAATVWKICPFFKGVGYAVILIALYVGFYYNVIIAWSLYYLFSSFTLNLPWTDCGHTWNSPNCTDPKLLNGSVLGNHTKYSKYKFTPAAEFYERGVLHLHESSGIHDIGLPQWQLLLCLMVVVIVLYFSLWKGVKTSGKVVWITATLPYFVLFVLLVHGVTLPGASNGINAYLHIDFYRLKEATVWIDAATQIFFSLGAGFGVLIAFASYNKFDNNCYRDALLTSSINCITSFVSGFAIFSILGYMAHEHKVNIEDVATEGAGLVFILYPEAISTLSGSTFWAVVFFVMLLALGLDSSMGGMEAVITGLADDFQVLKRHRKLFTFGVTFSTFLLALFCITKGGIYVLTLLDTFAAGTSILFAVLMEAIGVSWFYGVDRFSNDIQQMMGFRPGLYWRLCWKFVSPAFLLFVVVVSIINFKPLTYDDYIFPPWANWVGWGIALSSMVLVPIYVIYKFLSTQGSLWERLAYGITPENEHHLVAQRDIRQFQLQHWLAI
# Method: (§1) A 468-target kinome screen and a safety screen were carried out to examine the off-target profiles of different kinase inhibitors (DiscoverX, Freemont, Calif.). The kinome screen is a binding assay where API interference of kinase domain/substrate binding is assessed as percent of control. Less than 10% binding (or >90% binding inhibition) is most biologically relevant and considered as a ‘hit’. BA-2017 only had 7 off-target hits compared to BA-1049 and Netarsudil, which both had 11 hits (Table 1) (Studirvant et al. 2016 Bioorg Med Chem Lett. 26(10):2475-2480). […] Published data for Netarsudil were with 200 times less API. […] The NET activity likely helps to decrease IOP but might increase hyperemia, while the SERT activity might have long-term safety consequences (Costagliola et al. 2004 CNS drugs 18(8): p. 475-484).
# (§2) These targets include GPCRs, transporters, ion channels, nuclear receptors, non-kinase enzymes.
# [2] = target: T2, serotonin transporter (SERT) (Homo sapiens, UniProt P31645); experiment: Safety screen; format: biochemical; settings: 10,000 nM API
# T2 construct: purchased DiscoverX
# T2 sequence (P31645 whole entry): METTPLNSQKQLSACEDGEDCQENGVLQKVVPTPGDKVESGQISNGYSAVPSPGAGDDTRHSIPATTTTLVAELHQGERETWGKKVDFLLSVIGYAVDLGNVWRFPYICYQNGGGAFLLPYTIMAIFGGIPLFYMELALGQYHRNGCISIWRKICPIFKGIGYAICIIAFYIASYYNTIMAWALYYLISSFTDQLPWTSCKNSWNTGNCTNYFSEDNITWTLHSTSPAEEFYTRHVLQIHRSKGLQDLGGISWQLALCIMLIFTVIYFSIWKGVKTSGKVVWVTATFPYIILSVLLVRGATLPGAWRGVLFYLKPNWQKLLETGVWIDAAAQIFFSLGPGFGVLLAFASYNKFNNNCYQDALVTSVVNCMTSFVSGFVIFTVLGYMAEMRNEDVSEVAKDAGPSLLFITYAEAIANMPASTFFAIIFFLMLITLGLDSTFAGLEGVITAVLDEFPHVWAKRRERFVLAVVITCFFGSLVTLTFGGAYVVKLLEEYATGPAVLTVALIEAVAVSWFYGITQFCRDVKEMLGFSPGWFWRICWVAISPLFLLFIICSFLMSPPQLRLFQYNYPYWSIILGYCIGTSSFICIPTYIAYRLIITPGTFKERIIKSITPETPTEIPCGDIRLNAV
# Method: as §1, §2
# [3] = tested on: rat midbrain dopaminergic neurons; experiment: MPP+ toxicity in cultured midbrain dopaminergic neurons; format: cell-based; settings: 0.25-50 μM, 20 μM MPP+, 48 hours
# Method: These in vitro experiments are conducted using primary cultures of embryonic rat midbrain dopaminergic neurons. MPP+ is known to cause the death of cultured midbrain dopaminergic neurons. Rho kinase and Abl kinase inhibitors are tested individually at varying concentrations for their ability to prevent MPP+-induced cell death.
# Primary cultures of rat midbrain dopaminergic neurons are established from cells acutely isolated from the ventral midbrain of embryonic day 14 rats (Charles River; Wilmington, Mass.). The cells are plated in serum-free conditions (Neurobasal plus B-27 Supplements; Thermo-Fisher; Waltham, Mass.) onto glass coverslips coated with poly-ornithine and laminin as attachment factors. Cells are cultured overnight on the coated coverslips in a 37° C./5% CO2 tissue culture incubator prior to the initiation of the varying treatments.
# On day 3 after plating, MPP+(Sigma Chemical; St. Louis, Mo.) is added to the medium at 20 μM final concentration. The cultures are allowed to continue for an additional 48 hours. At the end of the culture period, the cells are washed, and then fixed with 4% paraformaldehyde solution prior to permeabilization and blocking with 10% normal goat serum in PBS. […] Specimens are examined using fluorescence microscopy and the numbers of TH-positive neurons with non-pyknotic nuclei are counted in 6 to 8 high power fields per specimen.
# 468-target kinome screen = experiment: DiscoverX kinome screen, off-target hits; format: binding, human; settings: 10,000 nM API
# Method: as §1
# (§3) In the kinome screen BA-2017 had fewer off-target hits (Table 1) than BA-1049. […] An interesting hit from the kinome screen was on Abl (Table 1), an oncogene that also regulates many cellular activities, including vascular leakage.
# PKC ε = target: T3, PKC ε (Homo sapiens, UniProt Q02156); experiment: DiscoverX kinome screen; format: binding; settings: 10,000 nM API
# T3 construct: are incubated with DNA-tagged kinase domains tagged; DNA tag; purchased DiscoverX
# T3 sequence (Q02156 408-668 limits assumed): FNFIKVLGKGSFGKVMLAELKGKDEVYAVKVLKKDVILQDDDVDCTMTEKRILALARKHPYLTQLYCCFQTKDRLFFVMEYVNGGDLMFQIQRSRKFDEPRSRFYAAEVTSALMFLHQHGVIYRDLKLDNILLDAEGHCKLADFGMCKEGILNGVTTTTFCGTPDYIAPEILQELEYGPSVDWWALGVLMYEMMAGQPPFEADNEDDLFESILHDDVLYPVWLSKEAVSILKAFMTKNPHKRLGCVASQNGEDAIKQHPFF
# Method: as §1, §3
# GRK1 = target: T4, GRK1 (Homo sapiens, UniProt Q15835); experiment: DiscoverX kinome screen; format: binding
# T4 construct: are incubated with DNA-tagged kinase domains tagged; DNA tag; purchased DiscoverX
# T4 sequence (Q15835 190-455 limits assumed): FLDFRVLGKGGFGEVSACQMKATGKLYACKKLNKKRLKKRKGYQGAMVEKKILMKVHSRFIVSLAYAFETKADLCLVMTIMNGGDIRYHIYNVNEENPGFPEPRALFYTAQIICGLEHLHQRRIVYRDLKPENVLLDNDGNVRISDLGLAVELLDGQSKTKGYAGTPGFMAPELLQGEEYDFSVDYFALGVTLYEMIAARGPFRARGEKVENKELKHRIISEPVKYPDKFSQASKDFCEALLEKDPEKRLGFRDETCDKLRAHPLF
# Method: as §1, §3
# [4] = Penetration and distribution in ocular tissues after topical instillation (LC-MS); format: in vivo, Sprague Dawley rats; settings: topical 5% solution of BA-1076, 20 minutes
# Method: Adult Sprague Dawley rats (Charles River Laboratories) were used for this experiment. […] One g of tissue was homogenized in 1 mL of 1×PBS. Homogenates were precipitated by pipetting 200 μL of homogenate into a tube using aseptically cut off 1000 μL pipette tips to prevent clogging. Samples are further diluted with 100 μL PBS to aid in precipitation. 900 μL of cold methanol was added to each sample and samples were vortexed for 5 to 10 seconds. Samples were placed at 4° C. for 30 to 40 min and then centrifuged at 10,000 g for 15 min at 4° C. The supernatant is collected and stored at −80° C. until analyzed.
# For the optic nerve sample, the concentration is shown per length of optic nerve (right y-axis). […] Therefore, drug is available in the retina and optic nerve for treating these tissues affected in glaucoma and other retinal diseases.
# In FIG. 14 we examined the ability of metabolite to penetrate the ocular tissues of the eye after topical instillation of a 3% solution of metabolite. In comparison with FIG. 13, that also the metabolite has adequate penetration into ocular and CNS tissue. Of particular note is the penetration in the retina and presence in the optic nerve. All compounds were given topically as eye drops to the eye of adult Sprague Dawley rats. Twenty minutes later the indicated tissues were removed and the parent compound and active metabolite were analyzed by LC/MS.
Compound,Reversal of ROCK activation (pMLC2) (cellular ROCK activity),Retinal ganglion cell dendritic arbors (retinal ganglion cells),Safety Screen % inhibition NET [1],Safety Screen % inhibition SERT [2],Number of surviving TH-positive neurons [3],Kinome Screen Other (other off-target kinase) (468-target kinome screen),# Hits <10% binding (468-target kinome screen; hit = less than 10% binding (>90% binding inhibition)),Kinome Screen % inhibition PKC ε (PKC ε) [%],Off-target activity on GRK1 (GRK1),Penetration into ocular tissues [4]
C[C@H](N)C1CCN(S(=O)(=O)c2cccc3cnccc23)CC1 [BA-1076],showed potency to reverse ROCK activation,protect and/or restore retinal ganglion cell dendritic arbors,none,none,dose-dependent increase in the number of surviving neurons,(ABL),7,86,"does not have this off-target effect; also recorded: neither BA-1076 nor its metabolite, BA-2057, exhibits off-target inhibition of GRK1","penetrate the tissue of the eye, including the CNS tissue of the retina"
C[C@H](N)C1CCN(S(=O)(=O)c2cccc3c(=O)[nH]ccc23)CC1 [BA-2057],more potent than the parent BA-1076,protect and/or restore retinal ganglion cell dendritic arbors,none,none,dose-dependent increase in the number of surviving neurons,none,–,<70,"neither BA-1076 nor its metabolite, BA-2057, exhibits off-target inhibition of GRK1","penetrate the tissue of the eye, including the CNS tissue of the retina; also recorded: the metabolite is better able to penetrate the optic nerve"
